{"source": "patent US8236346B2", "about": "“Method for reducing amyloid deposition, amyloid neurotoxicity, and microgliosis with (-)-nilvadipine enantiomer” (Alzheimer's Institute of America, Inc, priority 2007, dated 2012)", "key": {"[1]": {"system": "N9 murine microglial cells", "assay": "LPS-induced microglial activation, TNF-α production by ELISA", "format": "cell-based", "method": "N9 murine microglial cells are well characterized scavenger murine microglial clones derived from embryonic mouse brain. The extent of microglial activation was determined by TNF-α production (pg/ml) measured by ELISA. […] Microglial cells in the presence of 1 μg/ml LPS produced about 820 pg/ml TNF-α, an […] from the control cells and nilvadipine-administered cells."}, "[2]": {"system": "human glioblastoma cells transfected with APPsw", "assay": "APP processing, Aβ1-40 production by ELISA", "format": "cell-based"}, "[3]": {"system": "Aβ deposition (amyloid burden)", "assay": "Chronic administration of nilvadipine on Aβ deposition (amyloid burden), 4G8 immunostaining", "format": "in vivo, TgAPPsw mice", "method": "The 4G8 immunostaining technique was chosen for determining the Aβ burden because of its robust signal and optimal results for quantitative analysis of Aβ deposition. Briefly, paraffin sections were subjected to immunohistochemistry as described previously (Nakagawa, Y et al., Exp. Neurol., 163:244-252, 2000). Sections were deparaffinized in xylene, hydrated in a series of ethanol and deionized water, and subjected to an antigen retrieval step by immersing sections in 88% formic acid for 60 min before immunohistochemistry for Aβ. Sections were washed in water, and endogenous peroxidases were quenched using a freshly prepared mixture of methanol (150 ml) plus hydrogen peroxide (33%, 30 ml). The avidin-biotin complex method was used according to the instructions of the vendor (Vector Laboratories, Burlingame, Calif.). Amyloid burden was assessed by determining the percentage of the brain region that stained positive for Aβ. Negative controls included the application of the same immunohistochemistry protocol to sections, except preimmune serum was applied instead of primary antibody."}, "[4]": {"system": "human neuronal progenitor cells (HNPC)", "assay": "Aβ neurotoxicity, LDH release", "format": "cell-based", "conditions": "100 nM nilvadipine with 30 μM AgAβ, three days", "method": "Cyclic AMP (1 mM) (Sigma) was added to the culture medium and the HNPC cells were incubated at 37° C. for 48 hours or more under serum free conditions. This medium allowed differentiation of the progenitors into cells of neuronal lineage, as was confirmed by the staining of most of the cells with antibodies against the microtubule-associated protein, MAP-2. Neurotoxicity was assessed by measuring the amount of lactic dehydrogenase (LDH; an intracellular enzyme found in all cells) released from the cells."}, "[5]": {"system": "CD45+ microglia", "assay": "Chronic administration of nilvadipine on microglial activation, CD45 immunostaining", "format": "in vivo, TgAPPsw mice", "method": "Briefly, immunohistochemistry for CD45, a specific marker of microglia, was conducted on the cryostat brain sections. CD45-positive microglial cells were immunolocalized by incubation with a mouse monoclonal antibody against CD45 (Chemicon International) overnight at 4° C., followed by application of a biotinylated rabbit anti-mouse secondary antibody for 30 minutes. Detection of CD45 was completed with diaminobenzidine chromogen substrate, which produces a brown cell surface stain on CD45-positive microglial cells."}, "[6]": {"system": "7W WT APP751 Chinese hamster ovary cells", "assay": "Aβ1-40 and Aβ1-42 production by ELISA", "format": "cell-based", "conditions": "24 hours treatment", "method": "Production of Aβ1-40 and Aβ1-42 in the culture medium was measured by using a commercially available human Aβ1-40 ELISA (Biosource, CA) and commercially available human Aβ1-42 ELISA (Biosource, CA), respectively."}, "[7]": {"molecular_target": "L-type calcium channels (Rattus norvegicus, UniProt P22002)", "sequence (P22002 whole entry)": "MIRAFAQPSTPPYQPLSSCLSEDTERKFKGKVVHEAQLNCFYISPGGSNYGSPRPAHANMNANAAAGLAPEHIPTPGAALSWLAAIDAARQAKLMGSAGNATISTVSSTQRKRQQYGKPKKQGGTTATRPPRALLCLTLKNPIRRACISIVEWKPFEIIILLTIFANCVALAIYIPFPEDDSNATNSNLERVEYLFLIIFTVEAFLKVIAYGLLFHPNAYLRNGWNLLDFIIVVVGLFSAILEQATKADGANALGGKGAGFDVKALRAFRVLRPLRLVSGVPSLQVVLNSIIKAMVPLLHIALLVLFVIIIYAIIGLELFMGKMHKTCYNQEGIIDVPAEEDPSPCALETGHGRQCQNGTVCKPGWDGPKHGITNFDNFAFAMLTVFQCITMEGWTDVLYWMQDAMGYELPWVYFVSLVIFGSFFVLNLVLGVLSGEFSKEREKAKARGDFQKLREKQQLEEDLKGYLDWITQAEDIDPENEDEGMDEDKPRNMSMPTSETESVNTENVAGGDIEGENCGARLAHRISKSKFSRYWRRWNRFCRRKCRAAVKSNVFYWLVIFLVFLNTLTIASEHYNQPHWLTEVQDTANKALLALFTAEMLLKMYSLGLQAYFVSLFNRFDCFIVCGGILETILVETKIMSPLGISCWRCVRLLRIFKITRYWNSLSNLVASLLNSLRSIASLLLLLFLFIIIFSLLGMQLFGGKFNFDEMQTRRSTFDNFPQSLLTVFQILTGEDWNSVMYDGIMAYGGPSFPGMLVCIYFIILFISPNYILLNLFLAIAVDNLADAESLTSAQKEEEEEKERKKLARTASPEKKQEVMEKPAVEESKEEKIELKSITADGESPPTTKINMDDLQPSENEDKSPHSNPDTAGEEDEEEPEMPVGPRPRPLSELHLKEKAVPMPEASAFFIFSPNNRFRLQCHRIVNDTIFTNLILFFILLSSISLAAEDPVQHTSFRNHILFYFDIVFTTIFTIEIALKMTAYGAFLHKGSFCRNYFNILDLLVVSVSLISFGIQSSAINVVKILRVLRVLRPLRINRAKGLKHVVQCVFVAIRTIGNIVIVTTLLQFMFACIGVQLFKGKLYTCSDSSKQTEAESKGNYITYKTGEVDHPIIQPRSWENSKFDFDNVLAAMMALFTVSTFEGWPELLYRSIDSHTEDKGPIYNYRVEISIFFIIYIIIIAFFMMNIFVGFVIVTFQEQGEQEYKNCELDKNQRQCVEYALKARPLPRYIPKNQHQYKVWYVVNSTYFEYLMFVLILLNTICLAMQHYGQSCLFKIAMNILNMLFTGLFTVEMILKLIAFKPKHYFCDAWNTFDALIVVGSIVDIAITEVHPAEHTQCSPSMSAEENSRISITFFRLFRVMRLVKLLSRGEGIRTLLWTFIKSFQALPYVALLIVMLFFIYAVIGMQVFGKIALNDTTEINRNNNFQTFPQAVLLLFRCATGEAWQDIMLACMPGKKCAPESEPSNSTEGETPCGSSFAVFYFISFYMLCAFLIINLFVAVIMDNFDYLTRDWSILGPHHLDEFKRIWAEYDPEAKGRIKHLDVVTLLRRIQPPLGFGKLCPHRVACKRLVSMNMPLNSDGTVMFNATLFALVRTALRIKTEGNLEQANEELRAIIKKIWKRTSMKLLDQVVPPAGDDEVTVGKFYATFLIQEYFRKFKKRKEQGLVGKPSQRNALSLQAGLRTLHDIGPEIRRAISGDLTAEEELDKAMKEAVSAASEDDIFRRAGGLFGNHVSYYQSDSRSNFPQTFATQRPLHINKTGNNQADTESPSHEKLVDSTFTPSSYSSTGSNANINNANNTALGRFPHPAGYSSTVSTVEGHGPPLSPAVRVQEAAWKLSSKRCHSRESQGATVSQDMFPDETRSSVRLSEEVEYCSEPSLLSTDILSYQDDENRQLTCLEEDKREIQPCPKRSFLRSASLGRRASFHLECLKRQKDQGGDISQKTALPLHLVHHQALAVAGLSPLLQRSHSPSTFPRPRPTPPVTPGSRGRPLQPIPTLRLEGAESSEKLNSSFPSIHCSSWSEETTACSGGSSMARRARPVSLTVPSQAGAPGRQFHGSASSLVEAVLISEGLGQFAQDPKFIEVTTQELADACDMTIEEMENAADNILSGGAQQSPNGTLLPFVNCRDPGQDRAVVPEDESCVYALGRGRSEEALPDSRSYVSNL", "sequence (P54290 25-944 partner limits assumed)": "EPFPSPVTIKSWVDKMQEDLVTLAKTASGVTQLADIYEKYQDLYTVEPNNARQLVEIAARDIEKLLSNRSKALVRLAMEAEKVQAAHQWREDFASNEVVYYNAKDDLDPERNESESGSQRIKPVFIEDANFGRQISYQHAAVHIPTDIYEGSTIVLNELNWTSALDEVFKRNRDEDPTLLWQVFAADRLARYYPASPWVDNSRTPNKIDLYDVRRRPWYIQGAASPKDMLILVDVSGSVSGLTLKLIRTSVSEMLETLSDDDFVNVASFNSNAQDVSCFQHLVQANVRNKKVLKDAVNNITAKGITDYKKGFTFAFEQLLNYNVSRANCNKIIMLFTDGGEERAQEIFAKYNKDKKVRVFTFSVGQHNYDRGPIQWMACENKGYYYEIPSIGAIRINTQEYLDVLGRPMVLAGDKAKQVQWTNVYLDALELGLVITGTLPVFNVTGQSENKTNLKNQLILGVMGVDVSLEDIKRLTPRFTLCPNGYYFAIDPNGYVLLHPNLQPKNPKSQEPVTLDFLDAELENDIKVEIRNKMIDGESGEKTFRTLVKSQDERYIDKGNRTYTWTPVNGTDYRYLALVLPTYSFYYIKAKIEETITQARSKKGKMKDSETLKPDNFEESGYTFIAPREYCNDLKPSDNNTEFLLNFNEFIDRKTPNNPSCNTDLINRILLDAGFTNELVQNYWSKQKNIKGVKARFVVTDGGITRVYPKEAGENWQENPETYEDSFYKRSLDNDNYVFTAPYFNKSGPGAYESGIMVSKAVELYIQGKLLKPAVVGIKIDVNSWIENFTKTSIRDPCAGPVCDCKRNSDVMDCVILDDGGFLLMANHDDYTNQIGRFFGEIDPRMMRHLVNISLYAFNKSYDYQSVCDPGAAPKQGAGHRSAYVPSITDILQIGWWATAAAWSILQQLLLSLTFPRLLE", "sequence (P54290 945-1091 partner limits assumed)": "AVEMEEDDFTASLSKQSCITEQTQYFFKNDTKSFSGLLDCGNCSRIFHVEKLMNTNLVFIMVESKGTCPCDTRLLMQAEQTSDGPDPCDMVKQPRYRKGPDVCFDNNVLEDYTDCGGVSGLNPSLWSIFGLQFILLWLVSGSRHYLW", "assay": "FPL64176 induced vasoconstriction in rat aortae", "conditions": "100 nM, 2 min prior to 1 μM FPL64176"}, "[8]": {"system": "Aβ deposits", "conditions": "Lim et al., J. Neurosci. 2000; cited from earlier work"}}, "data": [{"compound": "COC(=O)C1=C(C#N)NC(C)=C(C(=O)OC(C)C)C1c1cccc([N+](=O)[O-])c1", "note": "(racemic) [nilvadipine, isopropyl-3-methyl-2-cyano-1,4-dihydro-6-methyl-4-(m-nitrophenyl)-3,5-pyridine-dicarboxylate]", "values": [{"measurement": "TNF-α production", "setting": "[1]; 50 nM nilvadipine, no LPS", "value": "about 40 pg/ml"}, {"measurement": "TNF-α production", "setting": "[1]; 1 μg/ml LPS plus 50 nM nilvadipine, 24 hours", "value": "about 670 pg/ml"}, {"measurement": "TNF-α production", "setting": "[1]; 1 μg/ml LPS plus 500 nM nilvadipine, 24 hours", "value": "about 610 pg/ml"}, {"measurement": "reduction of Aβ1-40 production", "setting": "[2]; 50 nM, 24 hours", "value": "about 9%"}, {"measurement": "reduction of Aβ1-40 production", "setting": "[2]; 50 nM, 48 hours", "value": "about 18%"}, {"measurement": "reduction of Aβ1-40 production", "setting": "[2]; 250 nM, 24 hours", "value": "about 15%"}, {"measurement": "reduction of Aβ1-40 production", "setting": "[2]; 250 nM, 48 hours", "value": "about 5%"}, {"measurement": "reduction of Aβ burden compared to controls", "setting": "[3]; CA1 region of the hippocampus", "value": "about 52%"}, {"measurement": "reduction of Aβ burden compared to controls", "setting": "[3]; CA2-CA3 region of the hippocampus", "value": "about 50%"}, {"measurement": "reduction of Aβ burden compared to controls", "setting": "[3]; motor cortex", "value": "about 58%"}, {"measurement": "reduction of Aβ burden compared to controls", "setting": "[3]; parietal cortex", "value": "about 65%"}, {"measurement": "reduction of Aβ burden compared to controls", "setting": "[3]; pyriform cortex", "value": "about 58%"}, {"measurement": "reduction of Aβ burden compared to controls", "setting": "[3]; visual cortex", "value": "about 62%"}, {"measurement": "decrease of LDH release", "setting": "[4]", "value": "about 44%"}, {"measurement": "reduction of microglial activation compared to controls", "setting": "[5]; hippocampus", "value": "about 33%"}, {"measurement": "reduction of microglial activation compared to controls", "setting": "[5]; motor cortex", "value": "about 27%"}, {"measurement": "reduction of microglial activation compared to controls", "setting": "[5]; parietal cortex", "value": "about 43%"}]}, {"compound": "COC(=O)C1=C(C#N)NC(C)=C(C(=O)OC(C)C)[C@H]1c1cccc([N+](=O)[O-])c1", "note": "[(+)-nilvadipine]", "values": [{"measurement": "effect on Aβ1-40 production", "setting": "[6]; dose response", "value": "dose dependently inhibit"}, {"measurement": "effect on Aβ1-42 production", "setting": "[6]; low dose", "value": "slightly stimulate"}, {"measurement": "effect on FPL64176 induced vasoconstriction", "setting": "[7]", "value": "completely antagonizes"}]}, {"compound": "CC(C)Cc1ccc(C(C)C(=O)O)cc1", "note": "(stereo not drawn) [ibuprofen]", "values": [{"measurement": "effect on Aβ deposits, astrocytosis and dystrophic neuritis", "setting": "[8]", "value": "reduction in Aβ deposits, astrocytosis, and dystrophic neuritis"}]}]}
